Test results from PubChem BioAssay (NCI).
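Where inhibition never reached the appropriate level, the endpoint shown equals the highest concentration tested. Otherwise, values were interpolated linearly from a five-concentration, 48-hour dose response in 96-well plates. GI50 is the concentration that inhibits growth by half. The concentration for full growth arrest is given as TGI.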

How the values were obtained:
Assay in all cases: NCI-60 cell line screen, 48 h
NCI-H23 lung = test system: NCI-H23 lung
OVCAR-5 ovarian = test system: OVCAR-5 ovarian
CAKI-1 renal = test system: CAKI-1 renal
NCI/ADR-RES ovarian = test system: NCI/ADR-RES ovarian
U251 CNS = test system: U251 CNS
HCC-2998 colon = test system: HCC-2998 colon
BT-549 breast = test system: BT-549 breast
UACC-62 melanoma = test system: UACC-62 melanoma
NCI-H226 lung = test system: NCI-H226 lung
MOLT-4 leukemia = test system: MOLT-4 leukemia

Structure (SMILES) | GI50 (NCI-H23 lung) | TGI (NCI-H23 lung) | GI50 (OVCAR-5 ovarian) | TGI (OVCAR-5 ovarian) | GI50 (CAKI-1 renal) | TGI (CAKI-1 renal) | GI50 (NCI/ADR-RES ovarian) | TGI (NCI/ADR-RES ovarian) | GI50 (U251 CNS) | TGI (U251 CNS) | GI50 (HCC-2998 colon) | TGI (HCC-2998 colon) | GI50 (BT-549 breast) | TGI (BT-549 breast) | GI50 (UACC-62 melanoma) | TGI (UACC-62 melanoma) | GI50 (NCI-H226 lung) | TGI (NCI-H226 lung) | GI50 (MOLT-4 leukemia) | TGI (MOLT-4 leukemia)
O=C1c2cccc3c(N4CCN(c5ccc6c7c(cccc57)C(=O)N(CCN5CCNCC5)C6=O)CC4)ccc(c23)C(=O)N1CCN1CCNCC1 | 11 µM | 26.3 µM | 15.1 µM | 34.1 µM | 14.7 µM | 33 µM | 13.8 µM | 32.6 µM | 16.8 µM | 35.7 µM | 5.63 µM | 20.9 µM | 19 µM | 39.3 µM | 15 µM | 30.2 µM | 12.4 µM | 29 µM | – | –
Clc1ccc2c(NCCCN3CCN(c4nc(-n5ccnc5)nc5ccccc45)CC3)ccnc2c1 | > 27.5 µM | > 100 µM | > 100 µM | > 100 µM | 8.91 µM | – | – | – | 1.89 µM | 3.53 µM | > 100 µM | > 100 µM | – | – | > 37.7 µM | > 67.1 µM | > 100 µM | > 100 µM | 2.38 µM | 6.85 µM
CNC(=O)OCc1nc(S(C)=O)n(C)c1COC(=O)NC (centres undefined) | – | > 100 µM | – | > 100 µM | – | > 93.8 µM | – | > 100 µM | – | > 100 µM | – | > 100 µM | – | – | – | > 65.9 µM | – | > 100 µM | – | > 100 µM
CC1CC(=O)C(C(O)CC2CC(=O)N(c3ccccc3)C(=O)C2)C(C)C1 (centres undefined) | – | > 100 µM | – | > 100 µM | – | > 100 µM | – | – | – | > 100 µM | – | > 100 µM | – | – | – | > 100 µM | – | > 100 µM | – | > 100 µM
COCCN1C2=CCCCC2=Nc2c(N)nc(N)nc21 | – | > 100 µM | – | > 100 µM | – | > 100 µM | – | – | – | > 100 µM | – | > 100 µM | – | – | – | > 100 µM | – | > 100 µM | – | > 100 µM
COc1cc2c(cc1OC)-c1c(cc(OC)c(OC)c1OC)C2=O | – | > 100 µM | – | > 100 µM | – | – | – | – | – | > 100 µM | – | > 100 µM | – | – | – | > 100 µM | – | > 100 µM | – | > 100 µM
CN/N=C(\C)CC(=O)Nc1cccc(Cl)c1C | – | > 100 µM | – | > 100 µM | – | > 100 µM | – | – | – | > 100 µM | – | > 100 µM | – | – | – | > 100 µM | – | > 100 µM | – | > 100 µM
O=C1OC(c2ccc([N+](=O)[O-])cc2)=N/C1=C\c1ccc(O)cc1 | – | > 100 µM | – | > 100 µM | – | > 100 µM | – | – | – | > 100 µM | – | > 100 µM | – | > 100 µM | – | > 100 µM | – | > 100 µM | – | > 100 µM
Cc1ccccc1NC(=O)C(=O)Cc1nc2ccccc2s1 | – | > 100 µM | – | > 100 µM | – | > 100 µM | – | – | – | > 100 µM | – | > 100 µM | – | – | – | – | – | > 100 µM | – | > 100 µM
O=C(O)C1Cc2nc[nH]c2CN1 (centres undefined) | – | > 100 µM | – | > 100 µM | – | > 100 µM | – | – | – | > 100 µM | – | > 100 µM | – | – | – | > 100 µM | – | > 100 µM | – | > 100 µM
CC(C)OCN1COCN=C1NC#N | – | > 100 µM | – | > 100 µM | – | > 100 µM | – | – | – | > 100 µM | – | > 100 µM | – | – | – | > 100 µM | – | > 100 µM | – | > 100 µM
COc1ccc(C(=O)C(C(=O)C(=O)Nc2nc3ccc(OC)cc3s2)c2ccc(OC)cc2)cc1 (centres undefined) | – | > 100 µM | – | > 100 µM | – | > 100 µM | – | – | – | > 100 µM | – | > 100 µM | – | – | – | > 100 µM | – | > 100 µM | – | > 100 µM
COC1OC(C)C(OC(=O)C(C)(C)C)C(C)(O)C1O (centres undefined) | – | > 100 µM | – | > 100 µM | – | > 100 µM | – | – | – | > 100 µM | – | > 100 µM | – | – | – | > 100 µM | – | – | – | > 100 µM
Oc1cccc(C2SCc3nc4ccccc4n32)c1 (centres undefined) | – | > 100 µM | – | > 100 µM | – | > 100 µM | – | – | – | > 100 µM | – | > 100 µM | – | – | – | > 100 µM | – | > 100 µM | – | > 100 µM
COC(=O)C(C(=O)C(=O)Nc1ccccc1OC)c1csc(-n2nc(-c3ccccc3)cc2-c2ccccc2)n1 (centres undefined) | – | > 100 µM | – | > 100 µM | – | > 100 µM | – | – | – | > 100 µM | – | > 100 µM | – | – | – | > 100 µM | – | > 100 µM | – | > 100 µM
COc1ccc(-c2c(N)[n+]([O-])c3cc(C)c(C)cc3[n+]2[O-])cc1OC | – | > 100 µM | – | > 100 µM | – | > 100 µM | – | – | – | > 100 µM | – | > 100 µM | – | – | – | > 100 µM | – | > 100 µM | – | > 100 µM
CCCCCN(CCCCC)C(=O)[C@@H](CCC(=O)OCc1ccccc1)NC(=O)c1cc2ccccc2[nH]1 | – | > 100 µM | – | > 100 µM | – | > 100 µM | – | – | – | > 100 µM | – | > 100 µM | – | – | – | > 100 µM | – | – | – | –
Fc1cccc(F)c1C1SCc2nc3ccccc3n21 (centres undefined) | – | > 100 µM | – | > 100 µM | – | > 100 µM | – | – | – | > 100 µM | – | > 100 µM | – | – | – | > 100 µM | – | > 100 µM | – | > 100 µM
N#Cc1c(NC(=O)CCC(=O)O)ccc2ccccc12 | – | > 100 µM | – | > 100 µM | – | > 100 µM | – | > 100 µM | – | > 100 µM | – | – | – | > 100 µM | – | > 100 µM | – | > 100 µM | – | –
O=C1C=C(Br)C(=O)C(Br)=C1 | – | > 100 µM | – | > 100 µM | – | > 100 µM | – | – | – | > 100 µM | – | > 100 µM | – | – | – | > 100 µM | – | > 100 µM | – | > 86.2 µM
COc1cc(C2C(C(=O)O)=C(C)Oc3cc4c(cc32)OCO4)cc(OC)c1OC (centres undefined) | – | > 100 µM | – | – | – | > 100 µM | – | – | – | > 100 µM | – | – | – | – | – | > 100 µM | – | – | – | > 100 µM
CC(=O)O[C@H]1CCC2[C@@H]3CCC4C(=O)c5oncc5C[C@]4(C)C3CC[C@@]21C (some centres undefined) | – | > 100 µM | – | > 100 µM | – | – | – | – | – | > 100 µM | – | > 100 µM | – | – | – | > 100 µM | – | – | – | > 100 µM
COc1ccc(/C=N/NC(=O)O)cc1 | – | > 100 µM | – | > 100 µM | – | > 100 µM | – | > 100 µM | – | > 100 µM | – | > 100 µM | – | > 100 µM | – | > 100 µM | – | – | – | > 100 µM
CC(=O)Nc1ccc(/C=c2\sc3nnc(/C=C/c4ccccc4)n3c2=O)cc1 | – | > 50 µM | – | > 50 µM | – | > 50 µM | – | – | – | > 50 µM | – | > 50 µM | – | – | – | > 50 µM | – | > 50 µM | – | > 50 µM
CC1CC2C3CC(F)C4=CC(=O)C=CC4(C)C3(F)C(O)CC2(C)C1(O)C(=O)CO (centres undefined) | – | > 100 µM | – | – | – | > 100 µM | – | – | – | > 100 µM | – | > 100 µM | – | – | – | > 100 µM | – | > 100 µM | – | > 100 µM
